Results taken from patent US9522947B2, “Peptidomimetic macrocycles” (Aileron Therapeutics, Inc., priority 2011, dated 2016).
Positions of bridges follow the written chain, without caps; N, C: chain ends. Non-standard residues stand in square brackets, D forms with d. Residues, ends and D or L forms follow the SMILES beside them. R8 = C=CCCCCCC[C@@](C)(N)C(=O)O; S5 = C=CCCC[C@](C)(N)C(=O)O; Nle = CCCC[C@H](N)C(=O)O

Tests used:
Figure 9 = assay: Figure 9
Source text: Table printed on a drawing sheet, Figure 9
Footnotes: ** literature values
First reader's note: The Tesamorelin rows are literature values, and their species, dose and route are printed inside the label cell.

growth hormone = assay: Plasma PD study in rats: growth hormone production/release; format: in vivo, Sprague-Dawley rats; details: FIG. 10
Procedure: Five peptidomimetic macrocycles of the invention (SP-1, SP-6, SP-8, SP-21, SP-32), as well as sermorelin, were studied to determine pharmacokinetic and pharmacodynamic parameters in rats. Male Sprague-Dawley rats (300 g, non-fasted, cannulated) were used. The study had three arms: IV administration, SC administration, and SC administration (vehicle control). For experiments using sermorelin, a dose level of 3 mg/kg IV/SC bolus was used (dose volume of 3 mL/kg dose and dose concentration of 1 mg/mL). The vehicle used was: 10 wt % N, N-Dimethylacetamide, 10 wt % DMSO, 2 wt % Solutol HS 15 in water for injection containing 45 mg/mL (4.5 wt %) Mannitol and 25 mM (0.38 wt %) Histidine (pH 7.5; 320 mOsm/kg). The peptide was first dissolved at high concentration in DMA and DMSO before a second dilution in Solutol vehicle.
For experiments using peptidomimetic macrocycles, 0.1 mL of DMA and 0.1 mL of DMSO were used to combine with each mg of macrocycle (˜4.3-4.5 mg of macrocycle used in each experiment). Sonication was used to ensure complete solubilization. 0.8 mL of Solutol vehicle was used for each mg of macrocycle in DMA/DMSO. The solutions were mixed gently with pipet or light vortexing. Fresh vials were used for each day of dosing, and macrocycles were stored solid at −20° C. prior to formulation. […]

[1] = cited from earlier work

## CCCC[C@H](NC(=O)[C@@H](NC(=O)[C@H](CC(=O)O)NC(=O)[C@H](CCC(N)=O)NC(=O)[C@H](CC(C)C)NC(=O)[C@]1(C)CCCC=CCCCCCC[C@@](C)(NC(=O)[C@H](CC(C)C)NC(=O)[C@@H](NC(=O)[C@H](CCCCN)NC(=O)[C@H](CCCNC(=N)N)NC(=O)[C@H](Cc2ccc(O)cc2)NC(=O)[C@H](CO)NC(=O)[C@]2(C)CCCC=CCCC[C@](C)(NC(=O)[C@H](CC(=O)O)NC(=O)[C@@H](C)NC(=O)[C@@H](N)Cc3ccc(O)cc3)C(=O)N[C@@H]([C@@H](C)CC)C(=O)N[C@@H](Cc3ccccc3)C(=O)N[C@@H]([C@@H](C)O)C(=O)N2)C(C)C)C(=O)N[C@@H](CCC(N)=O)C(=O)N[C@@H](CC(C)C)C(=O)N[C@@H](CO)C(=O)N[C@@H](C)C(=O)N[C@@H](CCCNC(=N)N)C(=O)N[C@@H](CCCCN)C(=O)N1)[C@@H](C)CC)C(=O)N[C@@H](CO)C(=O)N[C@@H](CCCNC(=N)N)C(N)=O [SP-6] (H-Y[dA]D[S5]IFT[S5]SYRKVL[R8]QLSARK[S5]LQDI[Nle]SR-NH2; staple 4-8, 15-22)
Figure 9
  AUCinf |: 23477 ng·h/mL
  Clp |: 2.13 mL/min/kg
  MRT | hr: 3.7 h
  Vdss |: 0.474 L/kg
  t 1/2 | hr: 20.6 h

## CCCC[C@@H]1NC(=O)[C@H]([C@@H](C)CC)NC(=O)[C@H](CC(=O)O)NC(=O)[C@H](CCC(N)=O)NC(=O)[C@H](CC(C)C)NC(=O)[C@H](CC(C)C)NC(=O)[C@](C)(NC(=O)[C@H](CCCNC(=N)N)NC(=O)[C@H](C)NC(=O)[C@H](CO)NC(=O)[C@H](CC(C)C)NC(=O)[C@H](CCC(N)=O)NC(=O)CNC(=O)[C@H](CC(C)C)NC(=O)[C@@H](NC(=O)[C@H](CCCCN)NC(=O)[C@H](CCCNC(=N)N)NC(=O)[C@H](Cc2ccc(O)cc2)NC(=O)[C@H](CO)NC(=O)[C@]2(C)CCCC=CCCC[C@](C)(NC(=O)[C@H](CC(=O)O)NC(=O)[C@@H](C)NC(=O)[C@@H](N)Cc3ccc(O)cc3)C(=O)N[C@@H]([C@@H](C)CC)C(=O)N[C@@H](Cc3ccccc3)C(=O)N[C@@H]([C@@H](C)O)C(=O)N2)C(C)C)CCCCCCC=CCCC[C@@](C)(C(=O)N[C@@H](CCCNC(=N)N)C(N)=O)NC1=O [SP-8] (H-Y[dA]D[S5]IFT[S5]SYRKVLGQLSAR[R8]LLQDI[Nle][S5]R-NH2; staple 4-8, 21-28)
Growth hormone
  stimulation of growth hormone production: stimulation of growth hormone production

## CCCC[C@H](NC(=O)[C@@H](NC(=O)[C@]1(C)CCCC=CCCC[C@](C)(NC(=O)[C@H](CCCNC(=N)N)NC(=O)[C@H](C)NC(=O)[C@H](CO)NC(=O)[C@H](CC(C)C)NC(=O)[C@H](CCC(N)=O)NC(=O)CNC(=O)[C@H](CC(C)C)NC(=O)[C@@H](NC(=O)[C@]2(C)CCCC=CCCCCCC[C@@](C)(NC(=O)[C@H](C)NC(=O)[C@H](CC(=O)O)NC(=O)[C@@H](C)NC(=O)[C@@H](N)Cc3ccc(O)cc3)C(=O)N[C@@H](Cc3ccccc3)C(=O)N[C@@H]([C@@H](C)O)C(=O)N[C@@H](CC(N)=O)C(=O)N[C@@H](CO)C(=O)N[C@@H](Cc3ccc(O)cc3)C(=O)N[C@@H](CCCNC(=N)N)C(=O)N2)C(C)C)C(=O)N[C@@H](CC(C)C)C(=O)N[C@@H](CC(C)C)C(=O)N[C@@H](CCC(N)=O)C(=O)N1)[C@@H](C)CC)C(=O)N[C@@H](CO)C(=O)N[C@@H](CCCNC(=N)N)C(N)=O [SP-21] (H-Y[dA]DA[R8]FTNSYR[S5]VLGQLSAR[S5]LLQ[S5]I[Nle]SR-NH2; staple 5-12, 21-25)
Figure 9
  Clp |: 1.65 mL/min/kg
  MRT | hr: 5.3 h
  Vdss |: 0.524 L/kg
  t 1/2 | hr: 10.1 h

## CCCC[C@H](NC(=O)[C@@H](NC(=O)[C@H](CC(=O)O)NC(=O)[C@H](CCC(N)=O)NC(=O)[C@H](CC(C)C)NC(=O)[C@H](CC(C)C)NC(=O)[C@H](CCCCN)NC(=O)[C@H](CCCNC(=N)N)NC(=O)[C@]1(C)CCCC=CCCCCCC[C@@](C)(NC(=O)[C@H](CCCNC(=N)N)NC(=O)[C@H](Cc2ccc(O)cc2)NC(=O)[C@H](CO)NC(=O)[C@H](CC(N)=O)NC(=O)[C@@H](NC(=O)[C@H](Cc2ccccc2)NC(=O)[C@@H](NC(=O)[C@H](C)NC(=O)[C@H](CC(=O)O)NC(=O)[C@@H](C)NC(=O)[C@@H](N)Cc2ccc(O)cc2)[C@@H](C)CC)[C@@H](C)O)C(=O)N[C@@H](C(C)C)C(=O)N[C@@H](CC(C)C)C(=O)NCC(=O)N[C@@H](CCC(N)=O)C(=O)N[C@@H](CC(C)C)C(=O)N[C@@H](CO)C(=O)N1)[C@@H](C)CC)C(=O)N[C@@H](CO)C(=O)N[C@@H](CCCNC(=N)N)C(N)=O [SP-32] (H-Y[dA]DAIFTNSYR[R8]VLGQLS[S5]RKLLQDI[Nle]SR-NH2; staple 12-19)
Figure 9
  Clp |: 1.35 mL/min/kg
  MRT | hr: 2.3 h
  Vdss |: 0.19 L/kg
  t 1/2 | hr: 9.7 h

## CC/C=C/CC(=O)N[C@@H](Cc1ccc(O)cc1)C(=O)N[C@@H](C)C(=O)N[C@@H](CC(=O)O)C(=O)N[C@@H](C)C(=O)N[C@H](C(=O)N[C@@H](Cc1ccccc1)C(=O)N[C@H](C(=O)N[C@@H](CC(N)=O)C(=O)N[C@@H](CO)C(=O)N[C@@H](Cc1ccc(O)cc1)C(=O)N[C@@H](CCCNC(=N)N)C(=O)N[C@@H](CCCCN)C(=O)N[C@H](C(=O)N[C@@H](CC(C)C)C(=O)NCC(=O)N[C@@H](CCC(N)=O)C(=O)N[C@@H](CC(C)C)C(=O)N[C@@H](CO)C(=O)N[C@@H](C)C(=O)N[C@@H](CCCNC(=N)N)C(=O)N[C@@H](CCCCN)C(=O)N[C@@H](CC(C)C)C(=O)N[C@@H](CC(C)C)C(=O)N[C@@H](CCC(N)=O)C(=O)N[C@@H](CC(=O)O)C(=O)N[C@H](C(=O)N[C@@H](CCSC)C(=O)N[C@@H](CO)C(=O)N[C@@H](CCCNC(=N)N)C(=O)N[C@@H](CCC(N)=O)C(=O)N[C@@H](CCC(N)=O)C(=O)NCC(=O)N[C@@H](CCC(=O)O)C(=O)N[C@@H](CO)C(=O)N[C@@H](CC(N)=O)C(=O)N[C@@H](CCC(N)=O)C(=O)N[C@@H](CCC(=O)O)C(=O)N[C@@H](CCCNC(=N)N)C(=O)NCC(=O)N[C@@H](C)C(=O)N[C@@H](CCCNC(=N)N)C(=O)N[C@@H](C)C(=O)N[C@@H](CCCNC(=N)N)C(=O)N[C@@H](CC(C)C)C(N)=O)[C@@H](C)CC)C(C)C)[C@@H](C)O)[C@@H](C)CC [Tesamorelin, dog 0.1 µg/kg IV**]
Figure 9
  AUCinf |: 5301 ng·h/mL
  t 1/2 | hr: 0.4 h

## GHRH: Human GHRH (Growth Hormone-Releasing Hormone), a 44-amino-acid peptide
[1]
  half-life of GHRH after intravenous injection: 0.167 to 0.2 h
